One data set deals with SARS-CoV-2. The data set is described as follows: Antiviral activity on SARS-CoV-2, viral replication (YFP) assay. The format is cell-based. Particulars: Severe acute respiratory syndrome coronavirus 2, read-out: EC50 range. The text has this:
(§1) The assay for viral replication (YFP) and the cell viability assay has been described in general in Pathogens 2021; 10:1076 and applied to compounds of the present invention furnished the following results: […]

Data set [1] is described as follows: Cell viability assay accompanying the SARS-CoV-2 assay. The format is cell-based. The note with it: cell viability assay of the SARS-CoV-2 test.
Text: as §1

In a further data set the target is T1, RORγt (Homo sapiens, UniProt P51449).
T1 sequence (P51449 269-508 limits assumed): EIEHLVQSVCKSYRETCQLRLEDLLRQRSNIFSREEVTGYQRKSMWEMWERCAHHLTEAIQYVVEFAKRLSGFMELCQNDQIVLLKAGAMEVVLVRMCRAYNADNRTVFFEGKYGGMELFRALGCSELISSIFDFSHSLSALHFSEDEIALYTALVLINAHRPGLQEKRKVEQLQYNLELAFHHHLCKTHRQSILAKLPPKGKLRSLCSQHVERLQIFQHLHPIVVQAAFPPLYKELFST
The data set is described as follows: Indigo Biosciences Human RAR-related Orphan Receptor, Gamma Reporter Assay (in vitro inhibition of RORγt). The format is cell-based. Particulars: RORγt reporter cells, luciferase readout, 22-24 h incubation; read-out: IC50 range. The method, then: The in vitro inhibition of RORγt was measured using Indigo Biosciences Human RAR-related Orphan Receptor, Gamma Reporter Assay System (Product #IB304001-32) as described in the technical manual. In brief, 200 μL of Reporter Cells is dispensed into wells of the assay plate and preincubated for 4-6 h. Following the pre-incubation period, culture media are discarded and 200 µL/well of the prepared 1×-concentration treatment media are added. Following 22-24 h incubation, treatment media are discarded and Luciferase Detection Reagent is added. The intensity of light emission (in units of ‘Relative Light Units’; RLU) from each assay well is quantified using a plate-reading luminometer. Average values of RLU were determined for each treatment concentration. Non-linear regression analyses were performed and IC50 values determined using GraphPad Prism software. Provided inverse-agonists ursolic acid served as positive control.
(A reporter such as luciferase makes a cellular process visible.)

Data set [2] is described as follows: Microsomal stability, human liver microsomes. Particulars: both. The method, then:
The conversion to the metabolite was monitored by HPLC-MS/MS. Verapamil served as positive control.
(§2) The metabolism was monitored by HPLC-MS/MS. Verapamil served as positive control. The intrinsic clearance was calculated from the measured remaining compound values.
as §2
A general note: Microsomes from liver hold many membrane-bound enzymes, among them those of drug oxidation.

Data set [3] can be described thus: Mouse pharmacokinetics, oral or intravenous cassette dosing. The format is in vivo, mice (C57BL/6J). The note with it: C57BL/6J, whole blood, 3 female mice, 5 mg/kg oral cassette, sampling 0.25-8 h; for AUC(0-t): read-out: AUC0-8 h. The method, then:
The pharmacokinetics of the compounds of the present invention was evaluated in 3 male and 3 female mice (C57BL/6J, 8 week old) after oral or intravenous cassette dosing to assess the oral bioavailability. Dose was 5 mg/kg (oral) and 1 mg/kg (intravenous), application volume was 5 mL/kg (oral) and 0.5 mL/kg (intravenous), vehicle was 5% solutol, 95% NaCl solution (at 0.9% saline concentration) for oral and 5% solutol, 5% Ethanol, 90% NaCl solution (at 0.9% saline concentration) for intravenous. At each designated time point (0.25, 0.5, 1, 2, 4, 8 and 24 h after dosing), 20 μL whole blood were collected from the tail vein into Li-heparin tubes, frozen on dry ice within 1-2 minutes of sampling and stored at −20° C. until processed for LC-MS analysis. The obtained data is as follows:
The pharmacokinetics of additional compounds of the present invention was evaluated in 3 female mice (C57BL/6J, 8 week old) after oral cassette dosing. Dose was 5 mg/kg, application volume was 5 mL/kg, vehicle was 5% solutol, 95% NaCl solution (at 0.9% saline concentration). At each designated time point (0.5, 1, 2, 4, 8 and 24 h after dosing), 20 μL whole blood were collected from the tail vein into Li-heparin tubes, frozen on dry ice within 1-2 minutes of sampling and stored at −20° C. until processed for LC-MS analysis. The obtained data is as follows:
The pharmacokinetics of additional compounds of the present invention was evaluated in 3 female mice (C57BL/6J, 8 week old) after oral cassette dosing. Dose was 5 mg/kg, application volume was 5 mL/kg, vehicle was 5% solutol, 95% NaCl solution (at 0.9% saline concentration). At each designated time point (0.25, 0.5, 1, 2, 4 and 8 h after dosing), 20 μL whole blood were collected from the tail vein into Li-heparin tubes, frozen on dry ice within 1-2 minutes of sampling and stored at −20° C. until processed for LC-MS analysis.

Where only a bound is given, the exact number is not on record here.

From patent US20250243190A1, “NEW DEUTERATED RORGAMMA/RORGAMMAT INVERSE AGONISTS” (IMMUNIC AG, priority 2022, published 2025) come the findings set out here.

`[2H]C([2H])(CC(C)(C)O)n1ncc(-c2onc(-c3c(F)cccc3Cl)c2-c2ncccn2)c1C1CC1` [10/3]: the EC50 in the data set with SARS-CoV-2 is 100 to 1000 nM. The same compound gave a CC50 in data set [1] of more than 100000 nM. In addition, the IC50 at RORγt is 100 to 1000 nM.
In data set [2], `[2H]C(C)(O)Cn1ncc(-c2onc(-c3c(F)cccc3Cl)c2-c2ncccn2)c1C(F)(F)F` (stereo not drawn) [Comparative Example C1/1, reference compound] had a microsomal CLint of 10.5 µL/min/mg.
Take `[2H]C([2H])(CC(C)(C)O)n1ncc(-c2onc(-c3c(F)cccc3Cl)c2-c2nccs2)c1C(F)(F)F` [Example 3-1]: in the data set on SARS-CoV-2, the EC50 was less than 100 nM. The compound also had a CC50 in data set [1] of 17000 nM. For the same compound, on RORγt, the IC50 was less than 10 nM.
In the case of `[2H]C([2H])(OC([2H])(C([2H])([2H])[2H])C([2H])([2H])[2H])c1c(-c2c(F)cccc2Cl)noc1-c1cnn(-c2cccc(Cl)c2)c1C(F)(F)F` [Example 102/2], the EC50 in the data set on SARS-CoV-2 is less than 100 nM. In data set [1], the CC50 is more than 100000 nM. Also, in data set [3], the Cmax was 112 ng/mL, the half-life was 2.8 h and the AUC(0-t) was determined as 280 ng·h/mL. Also, the IC50 at RORγt was less than 10 nM.
`[2H]C([2H])(CC(C)(C)O)n1ncc(-c2onc(-c3c(F)cc(OCCN4CCOCC4)cc3Cl)c2-c2ncccn2)c1C(F)(F)F` [Example 6, 4-(4-(3-(2-Chloro-6-fluoro-4-(2-morpholinoethoxy)phenyl)-4-(pyrimidin-2-yl)isoxazol-5-yl)-5-(trifluoromethyl)-1H-pyrazol-1-yl)-2-methylbutan-4,4-d2-2-ol]: the EC50 in the data set on SARS-CoV-2 was in the range of 100 to 1000 nM. Besides, the midpoint of cytotoxicity in data set [1], the CC50, lay at 27000 nM. Also, the IC50 at RORγt lay in the range of 100 to 1000 nM.
In the case of `[2H]C([2H])(OC(C)C)c1c(-c2c(F)cccc2Cl)noc1-c1cnn(-c2cccc(Cl)c2)c1C(F)(F)F` [Example 102/1], the EC50 in the data set on SARS-CoV-2 was less than 100 nM. The cytotoxic concentration (CC50) in data set [1] was more than 100000 nM. For the same compound, in data set [3], the peak level (Cmax) was 922 ng/mL, the half-life was 2.6 h and the AUC(0-t) was 2350 ng·h/mL. Moreover, the IC50 at RORγt is less than 10 nM.
As to `[2H]C([2H])([2H])OC(=O)c1c(-c2c(F)cccc2Cl)noc1-c1cnn(C([2H])([2H])CC(C)(C)O)c1C(F)(F)F` [Example 7/2, Methyl-d3 3-(2-chloro-6-fluorophenyl)-5-(1-(3-hydroxy-3-methylbutyl-1,1-d2)-5-(tri-fluoromethyl)-1H-pyrazol-4-yl)isoxazole-4-carboxylate], the EC50 with SARS-CoV-2 was less than 100 nM. Besides, in data set [1], the CC50 was determined as 63000 nM. For the same compound, the half-inhibitory concentration (IC50) at RORγt was in the range of 10 to 100 nM.
The matching figures for `[2H]C([2H])(CC(C)(C)O)n1ncc(-c2onc(-c3c(F)cccc3Cl)c2-c2ncccn2)c1C(F)F` [Example 4, 4-(4-(3-(2-Chloro-6-fluorophenyl)-4-(pyrimidin-2-yl)isoxazol-5-yl)-5-(difluoromethyl)-1H-pyrazol-1-yl)-2-methylbutan-4,4-d2-2-ol]: less than 100 nM, more than 100000 nM and 10 to 100 nM.
Regarding `[2H]C([2H])(CC(C)(C)O)n1ncc(-c2onc(-c3c(F)cccc3Cl)c2C(=O)OC)c1C(F)(F)F` [Example 7, Methyl 3-(2-chloro-6-fluorophenyl)-5-(1-(3-hydroxy-3-methylbutyl-1,1-d2)-5-(tri-fluoromethyl)-1H-pyrazol-4-yl)isoxazole-4-carboxylate], the EC50 with SARS-CoV-2 is less than 100 nM. The same compound displayed a CC50 in data set [1] of 20000 nM. The IC50 on RORγt fell in the range of 10 to 100 nM.
In the case of `[2H]C([2H])(OC1CC1)c1c(-c2c(F)cccc2Cl)noc1-c1cnn(C([2H])([2H])CC(C)(C)O)c1C(F)(F)F` [Example 9, 4-(4-(3-(2-Chloro-6-fluorophenyl)-4-(cyclopropoxymethyl-d2)isoxazol-5-yl)-5-(trifluoro-methyl)-1H-pyrazol-1-yl)-2-methylbutan-4,4-d2-2-ol], the EC50 with SARS-CoV-2 was 100 to 1000 nM. Further, the CC50 in data set [1] worked out at 18000 nM. Also, on RORγt, the IC50 lay within 10 to 100 nM.
With `[2H]C([2H])([2H])OC([2H])([2H])c1c(-c2c(F)cccc2Cl)noc1-c1cnn(-c2cccc(Cl)c2)c1C(F)(F)F` [Example 110, 3-(2-Chloro-6-fluorophenyl)-5-(1-(3-chlorophenyl)-5-(trifluoromethyl)-1H-pyrazol-4-yl)-4-((methoxy-d3)methyl-d2)isoxazole], in the data set with SARS-CoV-2, the EC50 is less than 100 nM. This compound registered a CC50 in data set [1] of more than 100000 nM. Further, the 50% inhibitory concentration (IC50) at RORγt was less than 10 nM.
Turning to `[2H]c1nc(-c2c(-c3c(F)cccc3Cl)noc2-c2cnn(-c3cccc(Cl)c3)c2C(F)(F)F)sc1[2H]` [Example 107, 3-(2-Chloro-6-fluorophenyl)-5-(1-(3-chlorophenyl)-5-(trifluoromethyl)-1H-pyrazol-4-yl)-4-(thiazol-2-yl-d2)isoxazole], in data set [3], the half-life is 1.6 h and the AUC(0-t) was found to be 871 ng·h/mL. Besides, on RORγt, the IC50 lay within 10 to 100 nM.
As to `[2H]C([2H])([2H])c1c(-c2onc(-c3c(F)cccc3Cl)c2-c2ncccn2)cnn1C([2H])([2H])CC(C)(C)O` [Example 10/1], the EC50 in the data set with SARS-CoV-2 was in the range of 100 to 1000 nM. Also, the CC50 in data set [1] was more than 100000 nM. Also, the IC50 on RORγt lay within 100 to 1000 nM.
For `[2H]C([2H])([C@H](C)O)n1ncc(-c2onc(-c3c(F)cccc3Cl)c2-c2ncccn2)c1C(F)(F)F` [Example 1, (S)-1-(4-(3-(2-Chloro-6-fluorophenyl)-4-(pyrimidin-2-yl)isoxazol-5-yl)-5-(trifluoromethyl)-1H-pyrazol-1-yl)propan-1,1-d2-2-ol], in the data set on SARS-CoV-2, the EC50 was less than 100 nM. In addition, in data set [1], the cytotoxic concentration (CC50) is 22000 nM. The IC50 at RORγt is 10 to 100 nM.
`[2H]C([2H])(OC1CC1)c1c(-c2c(F)cc(F)cc2Cl)noc1-c1cnn(-c2cccc(Cl)c2)c1C(F)(F)F` [Example 111/1]: the IC50 at RORγt fell in the range of 100 to 1000 nM.
Regarding `[2H]C([2H])(CC(C)(C)O)n1ncc(-c2onc(-c3c(F)cccc3Cl)c2-c2ncccn2)c1COC` [10/2], the EC50 in the data set on SARS-CoV-2 was in the range of 1000 to 50000 nM. Besides, the CC50 in data set [1] was more than 100000 nM. The IC50 on RORγt is 100 to 1000 nM.
Regarding `[2H]C([2H])(OC1CC1)c1c(-c2c(F)cccc2Cl)noc1-c1cnn(-c2cc(F)cc(Cl)c2)c1C(F)(F)F` [111/3], the IC50 on RORγt lay in the range of 10 to 100 nM.
On to `[2H]C([2H])(CC(C)(C)O)n1ncc(-c2onc(-c3c(F)cc(OC)cc3Cl)c2-c2ncccn2)c1C(F)(F)F` [Example 5, 4-(4-(3-(2-Chloro-6-fluoro-4-methoxyphenyl)-4-(pyrimidin-2-yl)isoxazol-5-yl)-5-(trifluoro-methyl)-1H-pyrazol-1-yl)-2-methylbutan-4,4-d2-2-ol], for which the EC50 in the data set on SARS-CoV-2 was 100 to 1000 nM. The same compound came in with a CC50 in data set [1] of more than 100000 nM. Further, the IC50 on RORγt lay in the range of 100 to 1000 nM.
For the compound `[2H]C([2H])(OC1COC1)c1c(-c2c(F)cccc2Cl)noc1-c1cnn(-c2cccc(Cl)c2)c1C(F)(F)F` [110/2], the IC50 at RORγt fell in the range of 10 to 100 nM.
For the compound `[2H]C([2H])([2H])C([2H])([2H])OC(=O)c1c(-c2c(F)cccc2Cl)noc1-c1cnn(-c2cccc(Cl)c2)c1C(F)(F)F` [Example 100/1], at RORγt, the IC50 was less than 10 nM.
Still for that read-out and setting: the same measure for `[2H]C([2H])(OCC)c1c(-c2c(F)cccc2Cl)noc1-c1cnn(-c2cccc(Cl)c2)c1C(F)(F)F` [110/3]: 10 to 100 nM.
Turning to `[2H]C([2H])(OC([2H])([2H])C([2H])([2H])[2H])c1c(-c2c(F)cccc2Cl)noc1-c1cnn(-c2cccc(Cl)c2)c1C(F)(F)F` [Example 110/1], the EC50 in the data set with SARS-CoV-2 is less than 100 nM. In addition, the CC50 in data set [1] is more than 100000 nM. In addition, the IC50 on RORγt lay in the range of 10 to 100 nM.

One may read the EC50 as the concentration that produces a half-maximal response. The CC50 is the concentration that lowers cell viability or growth by half. One may read the IC50 as the concentration needed to halve the response being measured. Broadly, the microsomal CLint is the rate of metabolic loss divided by the concentration. One may read the Cmax as the peak of the concentration-time curve. In general, half-life refers to how long it takes for the measured level to halve. Read a high half-life as slow loss.
